In brackets after ≈: the same amount, converted by molar mass. Activity calls are given as the source filed them. No cut-off for these calls is given here.
Assays:
Staphylococcus aureus [1] = test: Antibiofilm activity against Staphylococcus aureus ATCC 25923 after 24 hrs by crystal violet staining based assay; format: functional, organism-based
Klebsiella pneumoniae [2] = test: Potentiation of rifampicin-induced antibacterial activity against Klebsiella pneumoniae ATCC 700603 assessed as FICI after 18 hrs by checker board assay; format: functional
[3] = Selectivity index, ratio of MHC10 for human RBC to geometric mean of peptide MIC for gram negative bacteria; format: toxicity; settings: human red blood cells, read-out: Selectivity Index
[4] = Selectivity index, ratio of MHC10 for human RBC to geometric mean of peptide MIC for gram positive bacteria; format: toxicity; settings: human red blood cells, read-out: Selectivity Index
Staphylococcus aureus [5] = test: Ratio of antibacterial activity against Staphylococcus aureus ATCC 25923 in presence of FeCl3 to antibacterial activity against Staphylococcus aureus ATCC 25923; format: functional
Escherichia coli [6] = test: Ratio of antibacterial activity against Escherichia coli ATCC 25922 in presence of FeCl3 to antibacterial activity against Escherichia coli ATCC 25922; format: functional
Escherichia coli [7] = test: Induction of membrane disruption in Escherichia coli ATCC 25922 assessed as corrugated membrane surface at 4 times of MIC after 2 hrs by SEM analysis; format: functional, organism-based
Pseudomonas aeruginosa [8] = test: Potentiation of polymyxin B-induced antibacterial activity against Pseudomonas aeruginosa ATCC 27853 assessed as FICI after 18 hrs by checker board assay; format: functional
Escherichia coli [9] = test: Ratio of antibacterial activity against Escherichia coli ATCC 25922 in presence of KCl to antibacterial activity against Escherichia coli ATCC 25922; format: functional
Staphylococcus aureus [10] = test: Ratio of antibacterial activity against Staphylococcus aureus ATCC 25923 in presence of NaCl to antibacterial activity against Staphylococcus aureus ATCC 25923; format: functional
Klebsiella pneumoniae [11] = test: Antibacterial activity against Klebsiella pneumoniae ATCC 700603 after 18 hrs by CLSI based broth microdilution method; format: functional; settings: Klebsiella pneumoniae, 700603, 18 h
Pseudomonas aeruginosa [12] = test: Potentiation of rifampicin-induced antibacterial activity against Pseudomonas aeruginosa ATCC 27853 assessed as FICI after 18 hrs by checker board assay; format: functional
Escherichia coli [13] = test: Induction of membrane disruption in Escherichia coli ATCC 25922 assessed as degeneration in membrane at 4 times of MIC after 2 hrs by SEM analysis; format: functional, organism-based
Escherichia coli [14] = test: Induction of inner membrane permeabilization in Escherichia coli ATCC 43837 assessed as increase in ONPG release at 4 times of MIC by ONPG dye based assay; format: organism-based
Escherichia coli [15] = test: Ratio of MIC for Escherichia coli ATCC 25922 preincubated for 6 hrs in presence of 10% mouse serum and measured after 18 hrs to MIC for antibacterial activity against Escherichia coli ATCC 25922 after 18 hrs; format: functional
Escherichia coli [16] = test: Ratio of MIC for Escherichia coli ATCC 25922 preincubated for 1 hr in presence of 10% mouse serum and measured after 18 hrs to MIC for antibacterial activity against Escherichia coli ATCC 25922 after 18 hrs; format: functional
Escherichia coli [17] = test: Antimicrobial activity against Escherichia coli ATCC 25922 at 1 mM preincubated for 6 hrs in presence of 2000 ug/ml trypsin and measured after 18 hrs by microplate reader analysis; format: functional, organism-based
Escherichia coli [18] = test: Antibacterial activity against Escherichia coli ATCC 43837 after 18 hrs by CLSI based broth microdilution method; format: functional; settings: ATCC 43837, 18 h
Pseudomonas aeruginosa [19] = test: Antibiofilm activity against Pseudomonas aeruginosa ATCC 27853 after 24 hrs by crystal violet staining based assay; format: functional, organism-based
Escherichia coli [20] = test: Induction of inner membrane permeabilization in Escherichia coli ATCC 43837 assessed as increase in ONPG release at 1 to 2 times of MIC by ONPG dye based assay; format: organism-based
Escherichia coli [21] = test: Antibiofilm activity against Escherichia coli ATCC 25922 after 24 hrs by crystal violet staining based assay; format: functional, organism-based
Staphylococcus aureus [22] = test: Ratio of antibacterial activity against Staphylococcus aureus ATCC 25923 in presence of MgCl2 to antibacterial activity against Staphylococcus aureus ATCC 25923; format: functional
Staphylococcus aureus [23] = test: Antibacterial activity against Staphylococcus aureus ATCC 25923 after 18 hrs by CLSI based broth microdilution method; format: functional; settings: ATCC 25923, 18 h
Escherichia coli [24] = test: Potentiation of rifampicin-induced antibacterial activity against Escherichia coli ATCC 25922 assessed as FICI after 18 hrs by checker board assay; format: functional
Escherichia coli [25] = test: Ratio of antibacterial activity against Escherichia coli ATCC 25922 in presence of NaCl to antibacterial activity against Escherichia coli ATCC 25922; format: functional
Klebsiella pneumoniae [26] = test: Potentiation of polymyxin B-induced antibacterial activity against Klebsiella pneumoniae ATCC 700603 assessed as FICI after 18 hrs by checker board assay; format: functional
Bacillus subtilis = test: Antibacterial activity against Bacillus subtilis ATCC 23857 after 18 hrs by CLSI based broth microdilution method; format: functional; settings: ATCC 23857, 18 h
DNA = test: Binding affinity to Escherichia coli ATCC 25922 genomic DNA after 30 mins by agarose gel electrophoresis; format: nucleic-acid assay
Escherichia coli [27] = test: Antibacterial activity against Escherichia coli ATCC 25922 after 18 hrs by CLSI based broth microdilution method; format: functional; settings: ATCC 25922, 18 h
Escherichia coli [28] = test: Disruption of membrane integrity in Escherichia coli ATCC 25922 assessed as membrane damage by measuring PI fluorescence at 4 times of MIC incubated for 1 hr by PI dye based flow cytometric analysis (reference value: 1.35%); format: functional
Escherichia coli [29] = test: Induction of outer membrane permeabilization in Escherichia coli ATCC 25922 measured up to 12 mins by NPN-dye based assay; format: organism-based
Staphylococcus aureus [30] = test: Antibacterial activity against methicillin-resistant Staphylococcus aureus 936 after 18 hrs by CLSI based broth microdilution method; format: functional; settings: Staphylococcus aureus, 936, 18 h
Pseudomonas aeruginosa [31] = test: Antibacterial activity against Pseudomonas aeruginosa ATCC 27853 after 18 hrs by CLSI based broth microdilution method; format: functional; settings: ATCC 27853, 18 h
Escherichia coli [32] = test: Potentiation of polymyxin B-induced antibacterial activity against Escherichia coli ATCC 25922 assessed as FICI after 18 hrs by checker board assay; format: functional
Escherichia coli [33] = test: Induction of membrane disruption in Escherichia coli ATCC 25922 assessed as rough membrane surface at 4 times of MIC after 2 hrs by SEM analysis; format: functional, organism-based
Escherichia coli [34] = test: Ratio of antibacterial activity against Escherichia coli ATCC 25922 in presence of MgCl2 to antibacterial activity against Escherichia coli ATCC 25922; format: functional
Escherichia coli [35] = test: Antibiofilm activity against Escherichia coli ATCC 25922 at 2 times MIC after 24 hrs by crystal violet staining based assay; format: functional, organism-based
Staphylococcus aureus [36] = test: Ratio of antibacterial activity against Staphylococcus aureus ATCC 25923 in presence of KCl to antibacterial activity against Staphylococcus aureus ATCC 25923; format: functional
Escherichia coli [37] = test: Induction of ROS generation in Escherichia coli ATCC 25922; format: functional, organism-based
Erythrocyte = test: Hemolytic activity in human RBC measured after 1 hr by microplate reader analysis; format: ADME, cell-based
Escherichia coli [38] = test: Induction of membrane disruption in Escherichia coli ATCC 25922 assessed as fracture in membrane at 4 times of MIC after 2 hrs by SEM analysis; format: functional, organism-based

In the case of `CCCCCCCCCC(=O)NC(Cc1cn(CCCC[C@H](NC(C)=O)C(=O)NCC(=O)N[C@@H](CC(C)C)C(=O)N[C@@H](CC(C)C)C(=O)N[C@H](CCCCN)C(=O)N[C@@H](CCCNC(=N)N)C(=O)N[C@H](C(=O)N[C@H](CCCCN)C(=O)N[C@H](C(=O)N[C@@H](CC(C)C)C(=O)N[C@@H](CC(C)C)C(N)=O)[C@@H](C)O)[C@@H](C)CC)nn1)C(=O)NCC(=O)N[C@@H](CC(C)C)C(=O)N[C@@H](CC(C)C)C(=O)N[C@H](CCCCN)C(=O)N[C@@H](CCCNC(=N)N)C(=O)N[C@H](C(=O)N[C@H](CCCCN)C(=O)N[C@H](C(=O)N[C@@H](CC(C)C)C(=O)N[C@@H](CC(C)C)C(N)=O)[C@@H](C)O)[C@@H](C)CC` (some centres not stated), the inhibition (Staphylococcus aureus [1]) is reported as “Dose-dependent effect”, the “fractional inhibitory concentration index (FICI)” value (Klebsiella pneumoniae [2]) is reported as 0.5 and the selectivity ratio [3] is reported as 3.2. For the same compound, the selectivity ratio [4] was 3.69, the Ratio (Staphylococcus aureus [5]) was 2 - 4 and the Ratio (Escherichia coli [6]) was 2 - 4. For the same compound, the Activity (Escherichia coli [7]) was “Active”, the “fractional inhibitory concentration index (FICI)” value (Pseudomonas aeruginosa [8]) was 0.25 and the Ratio (Escherichia coli [9]) was 2 - 4. For the same compound, the Ratio (Staphylococcus aureus [10]) was 2 - 4, the MIC (Klebsiella pneumoniae [11]) was 16 µM (≈ 44 µg/mL) and the “fractional inhibitory concentration index (FICI)” value (Pseudomonas aeruginosa [12]) was 0.5625. The Activity (Escherichia coli [13]) was “Active”, the Activity (Escherichia coli [14]) was “Active” and the Ratio (Escherichia coli [15]) was 2. The Ratio (Escherichia coli [16]) was 1, the Activity (Escherichia coli [17]) was “Active” and the MIC (Escherichia coli [18]) was 8 µM (≈ 22 µg/mL). The inhibition (Pseudomonas aeruginosa [19]) was “Dose-dependent effect”, the Activity (Escherichia coli [20]) was “Active” and the inhibition (Escherichia coli [21]) was “Dose-dependent effect”. For the same compound, the Ratio (Staphylococcus aureus [22]) was 2 - 4, the MIC (Staphylococcus aureus [23]) was 8 µM (≈ 22 µg/mL) and the “fractional inhibitory concentration index (FICI)” value (Escherichia coli [24]) was 0.3125. The Ratio (Escherichia coli [25]) was 2 - 4, the “fractional inhibitory concentration index (FICI)” value (Klebsiella pneumoniae [26]) was 0.5625 and the MIC (Bacillus subtilis) was 2 µM (≈ 5.51 µg/mL). For the same compound, the Activity (DNA) was “Dose-dependent effect”, the MIC (Escherichia coli [27]) was 8 µM (≈ 22 µg/mL) and the Activity (Escherichia coli [28]) was 82.3%. For the same compound, the Activity (Escherichia coli [29]) was “Dose-dependent effect”, the MIC (Staphylococcus aureus [30]) was 16 µM (≈ 44 µg/mL) and the MIC (Pseudomonas aeruginosa [31]) was 8 µM (≈ 22 µg/mL). The “fractional inhibitory concentration index (FICI)” value (Escherichia coli [32]) was 0.3125, the Activity (Escherichia coli [33]) was “Active” and the Ratio (Escherichia coli [34]) was 2 - 4. For the same compound, the inhibition (Escherichia coli [35]) was “Active”, the Ratio (Staphylococcus aureus [36]) was 2 - 4 and the Activity (Escherichia coli [37]) was “inactive”. For the same compound, the MHC10 (Erythrocyte) was 32 µM and the Activity (Escherichia coli [38]) was “Active”.

With `CCCCCCCCCCCC(=O)NC(Cc1cn(CCCC[C@H](NC(C)=O)C(=O)NCC(=O)N[C@@H](CC(C)C)C(=O)N[C@@H](CC(C)C)C(=O)N[C@H](CCCCN)C(=O)N[C@@H](CCCNC(=N)N)C(=O)N[C@H](C(=O)N[C@H](CCCCN)C(=O)N[C@H](C(=O)N[C@@H](CC(C)C)C(=O)N[C@@H](CC(C)C)C(N)=O)[C@@H](C)O)[C@@H](C)CC)nn1)C(=O)NCC(=O)N[C@@H](CC(C)C)C(=O)N[C@@H](CC(C)C)C(=O)N[C@H](CCCCN)C(=O)N[C@@H](CCCNC(=N)N)C(=O)N[C@H](C(=O)N[C@H](CCCCN)C(=O)N[C@H](C(=O)N[C@@H](CC(C)C)C(=O)N[C@@H](CC(C)C)C(N)=O)[C@@H](C)O)[C@@H](C)CC` (some centres not stated) the inhibition (Staphylococcus aureus [1]) was “Dose-dependent effect”, the “fractional inhibitory concentration index (FICI)” value (Klebsiella pneumoniae [2]) was 0.5 and the selectivity ratio [3] was 2. For the same compound, the selectivity ratio [4] was 1.85, the Ratio (Staphylococcus aureus [5]) was 2 - 4 and the Ratio (Escherichia coli [6]) was 2 - 4. The Activity (Escherichia coli [7]) was “Active”, the “fractional inhibitory concentration index (FICI)” value (Pseudomonas aeruginosa [8]) was 0.1875 and the Ratio (Escherichia coli [9]) was 2 - 4. The Ratio (Staphylococcus aureus [10]) was 2 - 4, the MIC (Klebsiella pneumoniae [11]) was 8 µM (≈ 22.2 µg/mL) and the “fractional inhibitory concentration index (FICI)” value (Pseudomonas aeruginosa [12]) was 0.3125. The Activity (Escherichia coli [13]) was “Active”, the Activity (Escherichia coli [14]) was “Active” and the Ratio (Escherichia coli [15]) was 4. The Ratio (Escherichia coli [16]) was 2, the Activity (Escherichia coli [17]) was “Active” and the MIC (Escherichia coli [18]) was 8 µM (≈ 22.2 µg/mL). The inhibition (Pseudomonas aeruginosa [19]) was “Dose-dependent effect”, the Activity (Escherichia coli [20]) was “Active” and the inhibition (Escherichia coli [21]) was “Dose-dependent effect”. The Ratio (Staphylococcus aureus [22]) was 2 - 4, the MIC (Staphylococcus aureus [23]) was 8 µM (≈ 22.2 µg/mL) and the “fractional inhibitory concentration index (FICI)” value (Escherichia coli [24]) was 0.5625. For the same compound, the Ratio (Escherichia coli [25]) was 2 - 4, the “fractional inhibitory concentration index (FICI)” value (Klebsiella pneumoniae [26]) was 0.3125 and the MIC (Bacillus subtilis) was 2 µM (≈ 5.56 µg/mL). For the same compound, the Activity (DNA) was “Dose-dependent effect”, the MIC (Escherichia coli [27]) was 8 µM (≈ 22.2 µg/mL) and the Activity (Escherichia coli [28]) was 88.9%. The Activity (Escherichia coli [29]) was “Dose-dependent effect”, the MIC (Staphylococcus aureus [30]) was 16 µM (≈ 44.5 µg/mL) and the MIC (Pseudomonas aeruginosa [31]) was 8 µM (≈ 22.2 µg/mL). For the same compound, the “fractional inhibitory concentration index (FICI)” value (Escherichia coli [32]) was 0.3125, the Activity (Escherichia coli [33]) was “Active” and the Ratio (Escherichia coli [34]) was 2 - 4. For the same compound, the inhibition (Escherichia coli [35]) was “Active”, the Ratio (Staphylococcus aureus [36]) was 2 - 4 and the Activity (Escherichia coli [37]) was “inactive”. For the same compound, the MHC10 (Erythrocyte) was 16 µM and the Activity (Escherichia coli [38]) was “Active”.

Reference: ChEMBL document CHEMBL4359906, “Design and synthesis of new N-terminal fatty acid modified-antimicrobial peptide analogues with potent in vitro biological activity” (Eur J Med Chem, 2019)
